Converted amounts (≈) assume the structure as drawn. Where two headings read alike, the source gives them in different places.
How the values were obtained:
[1] = test system: Herpes simplex virus-2 (G); conditions: HEL; reduces virus-induced cytopathogenicity by 50%
[2] = test system: Herpes simplex virus-1 TK^− KOS ACV^r; conditions: HEL; reduces virus-induced cytopathogenicity by 50%
Vaccinia virus [3] = conditions: HEL; reduces virus-induced cytopathogenicity by 50%
[4] = test system: Herpes simplex virus-1 (KOS); conditions: HEL; reduces virus-induced cytopathogenicity by 50%
[5] = test system: Vesicular stomatitis virus; conditions: HEL; reduces virus-induced cytopathogenicity by 50%
[6] = Stability of synthetic compounds (no method given); format: physicochemical
HIV-1 (IIIB) [7] = assay: microbe, parasite or virus in culture; conditions: Human immunodeficiency virus 1, IIIB, CCRF-CEM
human PBMC = assay: Mitogenic activity assay, [3H]dThd incorporation in human PBMC with or without PHA; format: cell-based; conditions: concentrations up to 200 μg/ml, absence of PHA
Description: The mitogenic activity assay was conducted as follows. Human PBMC were isolated from buffy coats and brought in RPMI-1640 cell culture medium supplemented with 10% FCS and 2 mM L-glutamine. The cell cultures were exposed to several concentrations of the test compounds for 3 days in the absence or presence of PHA (phytohemagglutinin) (Murex Biotech Ltd., Dartford, UK) at 2 μg/ml. Subsequently, 0.25 μCi [CH3^−3H]dThd was added and, after 20 hr incubation at 37° C., the cells were precipitated in the presence of 10% TCA and the precipitate was washed twice with 10% TCA, twice with 5% TCA and once with 70% ethanol. The precipitate, containing [^3H]DNA, was then examined for radioactivity in a liquid scintillation counter.

in vitro = conditions: human
[8] = Cytotoxicity (CC50) in MT-4 cells; format: cell-based; conditions: human, MT-4 cells
[9] = Cytotoxicity (CC50) in C8166 cells; format: cell-based; conditions: human, C8166 cells
HIV-2 (ROD) = assay: microbe, parasite or virus in culture; format: cell-based; conditions: Human immunodeficiency virus 2, CCRF-CEM; Table 19; read-out: EC50 (CEM) HIV-2 (ROD)
Description: Human T-lymphocytic CEM cells (4.5×10^5 cells per ml) were suspended in fresh cell culture medium and infected with HIV-1 (IIIB and NL4.3) or HIV-2 (ROD or EHO) at 100 CCID50 (1 CCID50 being the virus dose infective for 50% of the cell cultures) per ml of cell suspension. Then, 100 μl of the infected cell suspension were transferred to microplate wells, mixed with 100 μl of appropriate (freshly prepared) dilutions of the test compounds (i.e., at final concentrations of […]), and were further incubated at 37° C. After 4 to 5 days, giant cell formation was recorded microscopically in the CEM cell cultures. […] (See Table 1).
(§1) MT-4, C8166 or CEM cells (4 to 5×10^5 cells per ml) were suspended in fresh culture medium (RPMI-1640 medium supplemented with 10% fetal bovine serum (FBS) (BioWittaker Europe, Verviers, Belgium), 2 mM L-glutamine and […] NaHCO3). Subsequently, the cells were infected with HIV-1 (IIIB) or HIV-2(ROD) at ˜100 CCID50 (1 CCID50 being the dose infective for 50% of the cell cultures) per ml of cell suspension. Then, 100 μl of the infected cell suspension were transferred to 96-well microplate wells, mixed with 100 μl of the appropriate (5-fold) dilutions of the test compounds and further incubated at 37° C. After 4 to 5 days, giant cell formation was recorded microscopically in the CEM and C8166 cell cultures. The MT-4 cell cultures were treated with trypan blue and the number of viable cells was determined.

HIV-1 (IIIB) [10] = assay: microbe, parasite or virus in culture; conditions: Human immunodeficiency virus 1, IIIB
Description: as §1

HIV-2(ROD) = assay: microbe, parasite or virus in culture
Description: as §1

HIV (SF2 virus) = assay: HIV infectivity assay, SF2-infected H9 cells, reverse transcriptase (RT) quantification in supernatant; format: cell-based
Punta Toro virus = assay: microbe, parasite or virus in culture; conditions: Vero, read-out: Minimum inhibitory concentration Punta Toro virus
Coxsackie virus B4 [11] = assay: Antiviral activity in Vero cell cultures, Coxsackie virus B4; format: cell-based; conditions: Enterovirus B, B4, reduces virus-induced cytopathogenicity by 50%, read-out: Minimum inhibitory concentration Coxsackie virus B4
Description: (§2) The cytotoxicity and antiviral activity of various concentrations of G-NH2 and GPG-NH2 were evaluated in cell cultures that were infected with various types of viruses. Conventional host cell culture, viral infection, and infectivity analysis for each different type of cell and virus were followed. Compounds that were known to inhibit replication of the particular types of viruses analyzed were used as controls.

[12] = test system: Vesicular stomatitis virus; assay: microbe, parasite or virus in culture; conditions: HEL, read-out: Minimum inhibitory concentration Vesicular stomatitis virus
[13] = test system: Vesicular stomatitis virus; assay: microbe, parasite or virus in culture; conditions: HeLa, read-out: Minimum inhibitory concentration Vesicular stomatitis virus
Parainfluenza-3 virus = assay: organism not typed; conditions: Vero, read-out: Minimum inhibitory concentration Parainfluenza-3 virus
Vaccinia virus [14] = assay: microbe, parasite or virus in culture; conditions: Orthopoxvirus vaccinia, HEL, read-out: Minimum inhibitory concentration Vaccinia virus
[15] = test system: Herpes simplex virus-1 TK^− KOS ACV^r; assay: microbe, parasite or virus in culture; conditions: Human alphaherpesvirus 1, HEL, read-out: Minimum inhibitory concentration Herpes simplex virus-1 TK^− KOS ACV^r
[16] = test system: Respiratory syncytial virus; assay: microbe, parasite or virus in culture; conditions: human respiratory syncytial virus, HeLa, read-out: Minimum inhibitory concentration Respiratory syncytial virus
[17] = test system: Herpes simplex virus-2 (G); assay: microbe, parasite or virus in culture; conditions: Human alphaherpesvirus 2, HEL, read-out: Minimum inhibitory concentration Herpes simplex virus-2 (G)
Coxsackie virus B4 [18] = assay: Antiviral activity in HeLa cell cultures, Coxsackie virus B4; format: cell-based; conditions: Enterovirus B, B4, reduces virus-induced cytopathogenicity by 50%, read-out: Minimum inhibitory concentration Coxsackie virus B4
Description: as §2

[19] = test system: Herpes simplex virus-1 (KOS); assay: microbe, parasite or virus in culture; conditions: Human alphaherpesvirus 1, HEL, read-out: Minimum inhibitory concentration Herpes simplex virus-1 (KOS)
Sindbis virus = assay: microbe, parasite or virus in culture; conditions: Vero, read-out: Minimum inhibitory concentration Sindbis virus
Reovirus-1 = assay: organism not typed; conditions: Vero, read-out: Minimum inhibitory concentration Reovirus-1
[20] = read-out: EC50 (CEM) HIV-1 (IIIB), Table 19
[21] = read-out: EC50 (CEM) HIV-1(IIIB), Table 20
[22] = C8166, read-out: EC50 (C8166) HIV-1 (IIIB), Table 19
[23] = C8166, read-out: EC50 (C8166) HIV-1 (IIIB), Table 20
[24] = MT4, read-out: EC50 (MT-4) HIV-1 (IIIB)
[25] = MT4, read-out: EC50 (MT-4) HIV-1(IIIB)
[26] = Human immunodeficiency virus 2, C8166, read-out: EC50 (C8166) HIV-2 (ROD), Table 19
[27] = Human immunodeficiency virus 2, C8166, read-out: EC50 (C8166) HIV-2 (ROD), Table 20
[28] = Human immunodeficiency virus 2, MT4, read-out: EC50 (MT-4) HIV-2 (ROD), Table 19
[29] = Human immunodeficiency virus 2, MT4, read-out: EC50 (MT-4) HIV-2 (ROD), Table 20

Structure (SMILES): Nc1nc2c(ncn2COCCO)c(=O)[nH]1 [ACG, reference compound]
- Minimum inhibitory concentration Herpes simplex virus-2 (G) [1]: 0.0768 µg/mL (≈ 0.341 µM)
- Minimum inhibitory concentration Herpes simplex virus-1 TK^− KOS ACV^r [2]: 9.6 µg/mL (≈ 42.6 µM)
- Minimum inhibitory concentration Vaccinia virus (Vaccinia virus [3]): >400 µg/mL
- Minimum inhibitory concentration Herpes simplex virus-1 (KOS) [4]: 0.0768 µg/mL (≈ 0.341 µM)
- Minimum inhibitory concentration Vesicular stomatitis virus [5]: >400 µg/mL

Structure (SMILES): Nc1nc2c(ncn2COC(CO)CO)c(=O)[nH]1 [DHPG, reference compound]
- Minimum inhibitory concentration Herpes simplex virus-2 (G) [1]: 0.0192 µg/mL (≈ 0.0752 µM)
- Minimum inhibitory concentration Herpes simplex virus-1 TK^− KOS ACV^r [2]: 0.48 µg/mL (≈ 1.88 µM)
- Minimum inhibitory concentration Vaccinia virus (Vaccinia virus [3]): 60 µg/mL (≈ 235 µM)
- Minimum inhibitory concentration Herpes simplex virus-1 (KOS) [4]: 0.0038 µg/mL (≈ 0.0149 µM)
- Minimum inhibitory concentration Vesicular stomatitis virus [5]: >400 µg/mL

Structure (SMILES): COC(N)C(N)=O (stereo not drawn) [Formula G, alpha-methoxyglycinamide]
- stability [6]: more stable than alpha-hydroxyglycinamide

Structure (SMILES): CN1C(=O)C(C)(C)NNC1=S [Formula K]
- EC50 (HIV-1 (IIIB) [7]; [20]): 115 µM
- EC50 (HIV-1 (IIIB) [7]; [21]): 115 µM
- mitogenic activity against human PBMCs (human PBMC): non-mitogenic
- CC50 at 96 hr (in vitro): ≥ 1150 µM
- CC50 [8]: 906 ± 179 µM
- CC50 [9]: 896 ± 265 µM
- EC50 (HIV-2 (ROD)): 65 ± 18 µM
- EC50 (HIV-1 (IIIB) [10]; [22]): 346 µM
- EC50 (HIV-1 (IIIB) [10]; [23]): 289 ± 81 µM
- EC50 (HIV-1 (IIIB) [10]; [24]): > 580 µM
- EC50 (HIV-1 (IIIB) [10]; [25]): > 1000 µM
- EC50 (HIV-2(ROD); [26]): > 580 µM
- EC50 (HIV-2(ROD); [27]): > 230 µM
- EC50 (HIV-2(ROD); [28]): > 580 µM
- EC50 (HIV-2(ROD); [29]): > 1000 µM

Structure (SMILES): CN1C(=O)C2(CCCCC2)NNC1=S [Formula M]
- EC50 (HIV-1 (IIIB) [7]; [20]): 97 ± 42 µM
- EC50 (HIV-1 (IIIB) [7]; [21]): 97 ± 42 µM
- mitogenic activity against human PBMCs (human PBMC): non-mitogenic
- CC50 at 96 hr (in vitro): ≥ 930 µM
- CC50 [8]: 455 ± 4.6 µM
- CC50 [9]: 488 ± 3.3 µM
- EC50 (HIV-2 (ROD)): 48 ± 14 µM
- EC50 (HIV-1 (IIIB) [10]; [22]): > 480 µM
- EC50 (HIV-1 (IIIB) [10]; [23]): > 190 µM
- EC50 (HIV-1 (IIIB) [10]; [24]): > 480 µM
- EC50 (HIV-1 (IIIB) [10]; [25]): > 900 µM
- EC50 (HIV-2(ROD); [26]): 480 µM
- EC50 (HIV-2(ROD); [27]): > 190 µM
- EC50 (HIV-2(ROD); [28]): > 480 µM
- EC50 (HIV-2(ROD); [29]): > 900 µM

Structure (SMILES): CC(C)C(N)C(=O)NC(O)C(N)=O [Formula Y, N-L-Valyl-α-Hydroxyglycinamide]
- HIV replication at 25 μM (HIV (SF2 virus); 25 μM): neglible levels
- IC50 (HIV (SF2 virus); Human immunodeficiency virus 1, H9, 264 h, RT quantification, day 11, read-out: IC50): ~16 µM
- stability [6]: stable

Structure (SMILES): NC(=O)c1ncn([C@@H]2O[C@H](CO)[C@@H](O)[C@H]2O)n1 [Ribavirin]
- EC50 (Punta Toro virus): 48 µg/mL (≈ 197 µM)
- EC50 (Coxsackie virus B4 [11]): > 400 µg/mL
- EC50 [12]: > 400 µg/mL
- EC50 [13]: 9.6 µg/mL (≈ 39.3 µM)
- EC50 (Parainfluenza-3 virus): 48 µg/mL (≈ 197 µM)
- EC50 (Vaccinia virus [14]): 240 µg/mL (≈ 983 µM)
- EC50 [15]: 80 µg/mL (≈ 328 µM)
- EC50 [16]: 16 µg/mL (≈ 65.5 µM)
- EC50 [17]: > 400 µg/mL
- EC50 (Coxsackie virus B4 [18]): 48 µg/mL (≈ 197 µM)
- EC50 [19]: 48 µg/mL (≈ 197 µM)
- EC50 (Sindbis virus): > 400 µg/mL
- EC50 (Reovirus-1): 16 µg/mL (≈ 65.5 µM)
